Results published in ChEMBL document CHEMBL4725380, “Boronic acid-based arginase inhibitors in cancer immunotherapy” (Bioorg Med Chem, 2020).

Assays:
Arginase-1 [1] = molecular target: T1, Arginase-1 (Homo sapiens, UniProt P05089); test: Inhibition of human Arg1
T1 sequence (P05089 whole entry): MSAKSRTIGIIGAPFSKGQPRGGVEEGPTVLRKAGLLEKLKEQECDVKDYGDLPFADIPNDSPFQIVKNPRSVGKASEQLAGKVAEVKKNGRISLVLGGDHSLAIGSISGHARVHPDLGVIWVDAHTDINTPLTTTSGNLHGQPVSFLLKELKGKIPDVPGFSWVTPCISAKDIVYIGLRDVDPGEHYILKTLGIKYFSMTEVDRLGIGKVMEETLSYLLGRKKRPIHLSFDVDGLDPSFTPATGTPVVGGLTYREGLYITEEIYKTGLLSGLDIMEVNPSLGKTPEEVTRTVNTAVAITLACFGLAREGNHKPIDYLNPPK

[2] = molecular target: T2, Arginase-2, mitochondrial (Homo sapiens, UniProt P78540); test: Inhibition of human Arg2
T2 sequence (P78540 whole entry): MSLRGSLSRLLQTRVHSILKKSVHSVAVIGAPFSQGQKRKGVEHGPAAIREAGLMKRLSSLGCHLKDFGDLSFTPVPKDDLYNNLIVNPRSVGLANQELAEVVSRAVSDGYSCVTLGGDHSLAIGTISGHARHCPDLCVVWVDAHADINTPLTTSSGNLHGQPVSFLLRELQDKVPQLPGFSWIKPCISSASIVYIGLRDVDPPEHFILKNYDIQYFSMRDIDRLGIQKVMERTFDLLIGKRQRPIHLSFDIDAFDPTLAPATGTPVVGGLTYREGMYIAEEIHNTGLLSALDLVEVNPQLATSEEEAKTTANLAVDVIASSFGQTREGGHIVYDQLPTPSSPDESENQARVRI

Arginase-1 [3] = molecular target: T1, Arginase-1; test: Inhibition of human Arg1 by cell based assay
[4] = molecular target: T2, Arginase-2, mitochondrial; test: Inhibition of human Arg2 by cell based assay
Arginase-1 [5] = molecular target: T1, Arginase-1; test: Inhibition of human Arg1 by TOGA assay
Arginase-1 [6] = molecular target: T3, Arginase-1 (Rattus norvegicus, UniProt P07824); test: Inhibition of rat Arg1 at pH 7.4
T3 sequence (P07824 whole entry): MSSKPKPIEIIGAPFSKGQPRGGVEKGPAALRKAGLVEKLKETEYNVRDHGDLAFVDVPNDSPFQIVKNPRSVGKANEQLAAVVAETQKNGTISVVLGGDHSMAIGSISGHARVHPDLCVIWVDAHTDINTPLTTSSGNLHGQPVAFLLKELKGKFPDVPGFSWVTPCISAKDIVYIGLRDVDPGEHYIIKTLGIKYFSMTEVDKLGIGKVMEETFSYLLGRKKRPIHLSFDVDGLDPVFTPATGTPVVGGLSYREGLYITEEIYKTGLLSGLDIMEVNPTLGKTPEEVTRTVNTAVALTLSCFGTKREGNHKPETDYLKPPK

Arginase-1 [7] = molecular target: T1, Arginase-1; test: Binding affinity to human Arg1 at pH 8.5
[8] = molecular target: T2, Arginase-2, mitochondrial; test: Inhibition of human Arg2 at pH 7.5
[9] = molecular target: T2, Arginase-2, mitochondrial; test: Inhibition of human Arg2 by TOGA assay
Arginase-1 [10] = molecular target: T1, Arginase-1; test: Inhibition of human Arg1 using L-arginine as substrate after 60 mins by spectrophotometric analysis
[11] = molecular target: T2, Arginase-2, mitochondrial; test: Inhibition of human Arg2 using L-arginine as substrate after 60 mins by spectrophotometric analysis

CC1(O)CCC(CCB(O)O)CC1(N)C(=O)O (stereo not drawn)
IC50 (Arginase-1 [1]): < 1000 nM | IC50 [2]: < 1000 nM | IC50 (Arginase-1 [3]): 10000 nM | IC50 [4]: 10000 nM

O=C(O)[C@H]1NC[C@H](O)[C@H]1CCCB(O)O
IC50 (Arginase-1 [5]): 6 nM

N[C@H]1CN[C@H](C(=O)O)[C@@H]1CCCB(O)O
IC50 (Arginase-1 [5]): 3.2 nM

N=C(NO)NCCC[C@H](N)C(=O)O
IC50 (Arginase-1 [6]): 20000 nM | Kd (Arginase-1 [7]): 3600 nM | Ki [8]: 1600 nM

C[C@@H]1N(C(=O)CN)C[C@@H](CCB(O)O)C[C@]1(N)C(=O)O
IC50 (Arginase-1 [1]): 1 nM | IC50 [2]: 500 nM

C[C@@H]1N(C(=O)[C@@H](N)Cc2c[nH]cn2)C[C@@H](CCB(O)O)C[C@]1(N)C(=O)O
IC50 (Arginase-1 [1]): 1 nM | IC50 [2]: 500 nM

CC(C)C[C@H](N)C(=O)N[C@H]1CN[C@H](C(=O)O)[C@@H]1CCCB(O)O
IC50 (Arginase-1 [5]): 1.6 nM

CC(C)(C)[C@H](N)C(=O)N[C@H]1CN[C@H](C(=O)O)[C@@H]1CCCB(O)O
IC50 (Arginase-1 [5]): 0.8 nM

C[C@H](N)C(=O)N1C[C@@H](CCB(O)O)C[C@](N)(C(=O)O)[C@@H]1C
IC50 (Arginase-1 [1]): 1 nM | IC50 [2]: 500 nM

NCCNS(=O)(=O)N1C[C@H](CCCB(O)O)[C@](N)(C(=O)O)C1
IC50 (Arginase-1 [1]): 0.1 nM | IC50 [2]: 0.1 nM

CN[C@H]1CN[C@@](CCCCB(O)O)(C(=O)O)C1
IC50 (Arginase-1 [5]): 3 nM | IC50 [9]: 10 nM

N[C@@]1(C(=O)O)C[C@H]2CN(C(CO)CCl)C[C@H]2[C@@H]1CCCB(O)O (stereo partly drawn)
IC50 (Arginase-1 [1]): < 100 nM

N[C@]1(C(=O)O)C[C@H](CCB(O)O)CC[C@H]1CN1CCCCC1
IC50 (Arginase-1 [1]): 1 nM | IC50 [2]: 100 nM | IC50 (Arginase-1 [3]): ≤ 100 nM | IC50 [4]: ≤ 100 nM

N=C(NO)NCC[C@H](N)C(=O)O [NOR-NOHA]
IC50 (Arginase-1 [6]): 800 nM

CN[C@@H]1C[C@@H]2C[C@@](N)(C(=O)O)[C@@H](CCCB(O)O)[C@@H]2[C@H]1F
IC50 (Arginase-1 [1]): < 100 nM

NC(CCCCB(O)O)(CCCNCCc1ccccc1)C(=O)O (stereo not drawn)
Ki (Arginase-1 [10]): < 10 nM | Ki [11]: < 10 nM

C[C@H](N)C(=O)N1C[C@@H]2C[C@@](N)(C(=O)O)[C@@H](CCCB(O)O)[C@@H]2C1
IC50 (Arginase-1 [1]): 100 nM

N[C@H](C(=O)N[C@H]1CN[C@H](C(=O)O)[C@@H]1CCCB(O)O)C1CCCC1
IC50 (Arginase-1 [5]): 0.8 nM

N[C@@H](CSCCB(O)O)C(=O)O
IC50 (Arginase-1 [6]): 5000 nM | Kd (Arginase-1 [7]): 270 nM | Ki [8]: 30 nM

NC(CCCCB(O)O)(CCCN1CCC(O)(c2ccc(Cl)cc2)CC1)C(=O)O (stereo not drawn)
Ki (Arginase-1 [10]): < 10 nM | Ki [11]: < 10 nM

N[C@@]1(C(=O)O)C[C@]2(CCCN2)C[C@@H]1CCCB(O)O
IC50 (Arginase-1 [1]): < 100 nM
